Molecules are shown by their SMILES.

Broadly, the Ki is the dissociation constant of the complex between target and ligand, obtained from inhibition or displacement. Lower therefore signals higher affinity.

This experiment addresses T1, glOTC (Giardia duodenalis, UniProt O76458).
T1 sequence (O76458 1-327): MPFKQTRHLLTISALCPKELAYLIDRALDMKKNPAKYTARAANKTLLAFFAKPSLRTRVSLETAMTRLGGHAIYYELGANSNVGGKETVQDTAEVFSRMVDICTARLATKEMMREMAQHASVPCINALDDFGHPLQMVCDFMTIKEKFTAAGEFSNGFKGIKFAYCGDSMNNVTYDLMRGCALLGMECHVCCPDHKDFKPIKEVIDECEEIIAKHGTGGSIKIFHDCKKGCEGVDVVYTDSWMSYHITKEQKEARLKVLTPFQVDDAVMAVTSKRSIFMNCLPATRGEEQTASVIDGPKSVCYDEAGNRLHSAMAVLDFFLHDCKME
Nature of the experiment: coupled spectrophotometric assay at […] nm. Format: biochemical.

Regarding `N[C@@H](CCCNC(=O)CP(=O)(O)O)C(=O)O` [PALO, N-phosphonoacetyl-L-ornthine], affinity was put at a Ki of 25 ± 9 nM.

Source of the values: paper PMC2753476 (Proteins, 2009).
